Source: ChEMBL document CHEMBL1201862, “PubChem BioAssay data set” (2004)
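Each compound was tested at five concentrations against cells in 96-well plates for 48 hours. GI50: concentration for 50% inhibition of growth.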 The source made the active and inactive calls. No stated cut-off is given here; in the data, active = GI50 up to about 1.1 µM and inactive = higher.

How the values were obtained:
Assay in all cases: DTP human tumour cell line panel, 48 h
[1] = system: KM-20L2
[2] = system: LXFL 529
[3] = system: DMS-273
[4] = system: M19-MEL
[5] = system: DLD-1
[6] = system: DMS-114
[7] = system: XF498
[8] = system: HOP-18
[9] = system: RXF 631

c1cc(-c2cn3c(n2)SCC3)ccn1
GI50 [1]: > 100 µM (inactive) | GI50 [2]: > 90.6 µM (inactive) | GI50 [3]: 28.3 µM (inactive) | GI50 [4]: > 60 µM (inactive) | GI50 [5]: > 75.7 µM (inactive) | GI50 [6]: > 55 µM (inactive) | GI50 [7]: > 100 µM (inactive) | GI50 [8]: > 100 µM (inactive)

Cc1nc(-n2nc(-c3ccccc3)cc2-c2ccccc2)sc1C(=O)CC(=O)C(=O)Nc1ccc(Cl)c(Cl)c1
GI50 [1]: 45.8 µM (inactive) | GI50 [2]: 45.1 µM (inactive) | GI50 [3]: 59.8 µM (inactive) | GI50 [4]: > 100 µM (inactive) | GI50 [9]: > 100 µM (inactive) | GI50 [5]: 34 µM (inactive) | GI50 [6]: 33.6 µM (inactive) | GI50 [8]: > 100 µM (inactive)

COc1ccccc1NC(=O)C1=C(C)NC(C)=C(C(=O)Nc2ccccc2OC)C1c1ccc(C(C)C)cc1
GI50 [1]: 48.4 µM (inactive) | GI50 [2]: > 100 µM (inactive) | GI50 [3]: 59.7 µM (inactive) | GI50 [4]: > 100 µM (inactive) | GI50 [9]: > 100 µM (inactive) | GI50 [5]: > 100 µM (inactive) | GI50 [7]: 18.6 µM (inactive) | GI50 [8]: > 100 µM (inactive)

CC[C@@H]1NC(C(=O)OC)Cc2c1[nH]c1ccccc21 (some centres undefined)
GI50 [1]: > 100 µM (inactive) | GI50 [2]: > 100 µM (inactive) | GI50 [3]: > 100 µM (inactive) | GI50 [4]: > 100 µM (inactive) | GI50 [9]: > 100 µM (inactive) | GI50 [5]: > 100 µM (inactive) | GI50 [6]: > 100 µM (inactive) | GI50 [8]: > 100 µM (inactive)

Cc1[nH]c2ccccc2c1C1Cc2ccccc2N1C(=O)C#Cc1ccc([N+](=O)[O-])cc1 (centres undefined)
GI50 [1]: > 100 µM (inactive) | GI50 [2]: > 100 µM (inactive) | GI50 [5]: > 100 µM (inactive) | GI50 [6]: > 100 µM (inactive) | GI50 [7]: > 100 µM (inactive) | GI50 [8]: > 100 µM (inactive)

CN(CCO)/N=N/c1n[nH]cc1C(N)=O
GI50 [1]: > 86.7 µM (inactive) | GI50 [3]: > 100 µM (inactive) | GI50 [4]: > 100 µM (inactive) | GI50 [5]: > 100 µM (inactive) | GI50 [6]: > 100 µM (inactive) | GI50 [7]: > 100 µM (inactive) | GI50 [8]: > 100 µM (inactive)

C=CCONC(=O)c1ccc(Cl)cc1
GI50 [1]: > 100 µM (inactive) | GI50 [2]: > 100 µM (inactive) | GI50 [4]: > 100 µM (inactive) | GI50 [9]: > 100 µM (inactive) | GI50 [5]: > 100 µM (inactive) | GI50 [6]: > 100 µM (inactive) | GI50 [7]: > 100 µM (inactive) | GI50 [8]: > 100 µM (inactive)

O=C1C(c2ccccc2)=C(c2ccccc2)C(c2ccc(CCCCCCc3ccc(C4=C(c5ccccc5)C(=O)C(c5ccccc5)=C4c4ccccc4)cc3)cc2)=C1c1ccccc1
GI50 [1]: > 100 µM (inactive) | GI50 [2]: > 100 µM (inactive) | GI50 [3]: > 100 µM (inactive) | GI50 [4]: > 100 µM (inactive) | GI50 [9]: > 100 µM (inactive) | GI50 [5]: > 100 µM (inactive) | GI50 [6]: > 100 µM (inactive)

O=[N+]([O-])c1cccc2c1[nH]c1c(-c3ccccc3)nccc12
GI50 [1]: 2.45 µM (inactive) | GI50 [3]: 2.43 µM (inactive) | GI50 [4]: 2.07 µM (inactive) | GI50 [5]: 2.85 µM (inactive) | GI50 [6]: 1.27 µM (inactive) | GI50 [7]: 2.65 µM (inactive) | GI50 [8]: 0.274 µM (active)

CCN(c1ccc(Br)cc1)c1c(Br)c(=O)nc2ccccn12
GI50 [1]: > 100 µM (inactive) | GI50 [2]: > 100 µM (inactive) | GI50 [3]: 83.2 µM (inactive) | GI50 [4]: > 100 µM (inactive) | GI50 [9]: > 100 µM (inactive) | GI50 [5]: > 100 µM (inactive) | GI50 [6]: 70.6 µM (inactive) | GI50 [7]: > 100 µM (inactive)

CC(C)N(C(=O)C12C3C4C5(C#N)C3C1(C#N)C5C42I)C(C)C (centres undefined)
GI50 [1]: > 100 µM (inactive) | GI50 [2]: > 100 µM (inactive) | GI50 [3]: > 43.4 µM (inactive) | GI50 [4]: 97.1 µM (inactive) | GI50 [9]: > 100 µM (inactive) | GI50 [5]: > 42.6 µM (inactive) | GI50 [6]: > 44.4 µM (inactive) | GI50 [7]: > 100 µM (inactive) | GI50 [8]: > 100 µM (inactive)

CC(/C=C/C(=O)c1sc(-n2nc(-c3ccccc3)cc2-c2ccccc2)nc1C)=C\c1ccccc1
GI50 [1]: 20.7 µM (inactive) | GI50 [2]: 38.4 µM (inactive) | GI50 [3]: > 10 µM (inactive) | GI50 [4]: 75 µM (inactive) | GI50 [9]: 65.9 µM (inactive) | GI50 [5]: 29.9 µM (inactive) | GI50 [6]: 16.9 µM (inactive) | GI50 [7]: > 10 µM (inactive) | GI50 [8]: > 10 µM (inactive)

O=C(CC1OC(O)C(Cl)=C1Cl)c1cccnc1 (centres undefined)
GI50 [1]: > 100 µM (inactive) | GI50 [2]: > 56.1 µM (inactive) | GI50 [3]: > 53 µM (inactive) | GI50 [4]: > 62.4 µM (inactive) | GI50 [9]: > 100 µM (inactive) | GI50 [6]: > 41.1 µM (inactive) | GI50 [7]: > 100 µM (inactive) | GI50 [8]: > 100 µM (inactive)

CCCCCCCCCCCCCCCC(=O)OCC(C[As](=O)(O)O)OC(=O)CCCCCCCCCCCCCCC (centres undefined)
GI50 [1]: > 100 µM (inactive) | GI50 [2]: > 100 µM (inactive) | GI50 [3]: > 100 µM (inactive) | GI50 [4]: > 100 µM (inactive) | GI50 [9]: 54.7 µM (inactive) | GI50 [5]: > 100 µM (inactive) | GI50 [6]: 70.6 µM (inactive) | GI50 [7]: 27 µM (inactive) | GI50 [8]: > 100 µM (inactive)

O=C(O)CCCNS(=O)(=O)c1ccc2ccccc2c1
GI50 [1]: > 100 µM (inactive) | GI50 [2]: > 100 µM (inactive) | GI50 [3]: > 100 µM (inactive) | GI50 [4]: > 100 µM (inactive) | GI50 [9]: > 100 µM (inactive) | GI50 [5]: > 100 µM (inactive) | GI50 [7]: > 100 µM (inactive) | GI50 [8]: > 100 µM (inactive)

CC(=O)OCCOCNC(=S)N/N=C/c1ccc([N+](=O)[O-])o1
GI50 [1]: 26.4 µM (inactive) | GI50 [2]: 77.6 µM (inactive) | GI50 [3]: 37.9 µM (inactive) | GI50 [4]: 15.7 µM (inactive) | GI50 [9]: 58.7 µM (inactive) | GI50 [5]: 53.1 µM (inactive) | GI50 [6]: 17.1 µM (inactive) | GI50 [7]: > 100 µM (inactive) | GI50 [8]: > 100 µM (inactive)

COC(=O)c1ccc(OCc2ccc3nc(OC)c(OC)nc3c2)cc1
GI50 [3]: > 100 µM (inactive) | GI50 [4]: > 100 µM (inactive) | GI50 [5]: > 100 µM (inactive) | GI50 [6]: 52.8 µM (inactive) | GI50 [7]: > 100 µM (inactive) | GI50 [8]: > 100 µM (inactive)

O=C(c1cc2c(C(F)(F)F)onc2c2ccccc12)C(F)(F)F
GI50 [1]: 1.22 µM (inactive) | GI50 [2]: 0.347 µM (active) | GI50 [3]: 1.49 µM (inactive) | GI50 [4]: 3.1 µM (inactive) | GI50 [9]: 2.38 µM (inactive) | GI50 [5]: 0.484 µM (active) | GI50 [6]: 2.15 µM (inactive) | GI50 [8]: 6.47 µM (inactive)

CC1OC(OC2CC(O)(C(=O)CO)Cc3c(O)c4c(c(O)c32)C(=O)c2ccccc2C4=O)CC(N)C1O (centres undefined)
GI50 [1]: < 0.0117 µM (active) | GI50 [2]: < 0.0238 µM (active) | GI50 [3]: < 0.01 µM (active) | GI50 [4]: < 0.01 µM (active) | GI50 [9]: 0.0102 µM (active) | GI50 [5]: < 0.01 µM (active) | GI50 [6]: < 0.01 µM (active) | GI50 [8]: < 0.01 µM (active)

CN1C(=O)C2C(C1=O)C1(O)c3ccccc3C2(N)c2ccccc21 (centres undefined)
GI50 [3]: > 100 µM (inactive) | GI50 [4]: > 100 µM (inactive) | GI50 [9]: > 100 µM (inactive) | GI50 [5]: > 100 µM (inactive) | GI50 [6]: > 100 µM (inactive) | GI50 [8]: > 100 µM (inactive)

Cc1cc(/N=C2\C=C(Nc3cc(C)on3)C(=O)c3ccccc32)no1
GI50 [1]: 43.7 µM (inactive) | GI50 [2]: > 100 µM (inactive) | GI50 [3]: 80.4 µM (inactive) | GI50 [4]: 2.64 µM (inactive) | GI50 [9]: 28.8 µM (inactive) | GI50 [5]: > 100 µM (inactive) | GI50 [6]: 25.1 µM (inactive) | GI50 [7]: 35.6 µM (inactive) | GI50 [8]: 28.4 µM (inactive)

OCC#CCNCl
GI50 [1]: > 100 µM (inactive) | GI50 [3]: > 100 µM (inactive) | GI50 [4]: > 100 µM (inactive) | GI50 [5]: > 100 µM (inactive) | GI50 [6]: > 100 µM (inactive) | GI50 [7]: > 53.1 µM (inactive) | GI50 [8]: > 100 µM (inactive)

COc1cc([C@@H]2c3cc4c(cc3[C@@H](OC3OC5COC(C)OC5C(O)C3O)[C@H]3COC(=O)[C@H]23)OCO4)cc(OC)c1O (some centres undefined)
GI50 [1]: 70.8 µM (inactive) | GI50 [2]: 26.5 µM (inactive) | GI50 [3]: 1.97 µM (inactive) | GI50 [4]: 34.7 µM (inactive) | GI50 [5]: 37.2 µM (inactive) | GI50 [6]: 5.57 µM (inactive) | GI50 [7]: 8.41 µM (inactive) | GI50 [8]: 28.3 µM (inactive)

COC(=O)C12OCC34C(CC5C(C)=C(O)C(=O)CC5(C)C3C(O)C1O)OC(=O)C(OC(=O)C=C(C)C)C24 (centres undefined)
GI50 [1]: > 500 µM (inactive) | GI50 [3]: > 500 µM (inactive) | GI50 [4]: 287 µM (inactive) | GI50 [5]: 108 µM (inactive) | GI50 [6]: 167 µM (inactive) | GI50 [7]: 335 µM (inactive) | GI50 [8]: > 500 µM (inactive)

C=C(CO)CC(O)c1ccccc1 (centres undefined)
GI50 [1]: > 100 µM (inactive) | GI50 [2]: > 100 µM (inactive) | GI50 [3]: > 100 µM (inactive) | GI50 [4]: > 100 µM (inactive) | GI50 [9]: > 100 µM (inactive) | GI50 [5]: > 100 µM (inactive) | GI50 [6]: > 100 µM (inactive) | GI50 [7]: > 100 µM (inactive)

O=C1c2cc3c(cc2[C@@H]2NC4CCCC14O2)OCO3 (some centres undefined)
GI50 [1]: > 100 µM (inactive) | GI50 [2]: > 100 µM (inactive) | GI50 [3]: > 100 µM (inactive) | GI50 [4]: > 100 µM (inactive) | GI50 [5]: > 100 µM (inactive) | GI50 [6]: > 100 µM (inactive) | GI50 [7]: > 100 µM (inactive)

CS(=O)(=O)N(N(CCCl)S(=O)(=O)c1ccccc1)S(C)(=O)=O
GI50 [1]: > 100 µM (inactive) | GI50 [2]: > 100 µM (inactive) | GI50 [3]: > 100 µM (inactive) | GI50 [4]: > 100 µM (inactive) | GI50 [9]: > 100 µM (inactive) | GI50 [5]: > 100 µM (inactive) | GI50 [7]: > 100 µM (inactive) | GI50 [8]: 31 µM (inactive)
